# Structures can show the parent of a compound that is named as a salt.
# Legend:
# [1] = test system: drinking frequency of thirsty animals; assay: Anxiolytic activity (drinking frequency of thirsty naive rats, electro-shock); format: in vivo; conditions: 10 mgm/kg orally, one hour before testing; for Shocks/animal, Treated animals: 3-minute session; for Shocks/animal, Difference (treated animals vs controls): ^+ significant difference compared with control group, (A, C, H, I, K), ° difference compared with control group, p >0.1 (B, D, E, F, J), G unmarked
# Experimental: In their experiments, the drinking frequency of thirsty animals served as a measure for anxiety-relieving effects. Female rats with body weights between 150 and 170 gm were used as experimental animals. Food was available at all times, whereas they were deprived of water for 48 hours prior to the test session. The test apparatus was an opaque plastic box (24 × 24 × 22 cm), provided with a plexiglass cover and a […] floor. The metal drinking tube of a 250 ml-bottle covered with a hard plastic projected 2 cm from the wall into the box, the tube being attached to one side at a height of 6.5 cm. A piece of 0.2 cm at the tip of the tube was not plastic-covered. An electrical circuit was connected between the tube and the grid floor. Whenever a rat closed the circuit by licking the tube, each lick was counted electronically. At every 20th lick the animal received an electro-shock (40 V, 10 mA A.C.) via the tube ending and the grid. After the first 20 licks a time-counter was switched on, finishing the test after 3 minutes. Within this period the drinking frequency of each animal was recorded as the number of shocks delivered during the 3-minute session. […] The control groups received only the solvent or suspension agent. Statistical comparisons were made, using the Mann-Whitney-U-test (Siegel: Nonparametric Statistics, McGraw-Hill, 1956).
# [2] = test system: hindlimb tonic extensor component of the maximal seizure pattern; assay: Anticonvulsive activity in mice (maximal electroshock seizure); format: in vivo; conditions: Mus musculus, po, p.o.
# Experimental: Male mice with body weights between 20 and 26 gm were used as experimental animals. They were allowed free access to food (Altromin®) and water up to one hour before administration of the test compound. Tests were carried out by using the maximal electroshock seizure pattern[Swinyard, Brown and Goodman, J. Pharmacol. exp. Ther. 106, 319 (1952)]. The electroshock apparatus was constructed according to Woodbury and Davenport […]. The electric impulses (50 Hz A.C., 50 mA, 0.2 sec) were delivered via steel ball electrodes covered with buckskin and moistened with 0.9% sodium chloride solution placed on the heads and over the eyes of the mice. The test is a measure of the ability of anticonvulsive drugs to abolish the hindlimb tonic extensor component of the maximal seizure pattern induced by electric stimulation. The test compound was administered either as the free base or as the hydrochloride. The free base was suspended in 1% tylose, and the hydrochloride was dissolved in distilled water. […] Control groups received only the suspension agent or solvent orally. 30, 150 and 300 minutes after administration all animals were shocked.
# [3] = Acute toxicity in the mouse after intravenous administration; conditions: in vivo, i.v., mice, observed 14 days
# Experimental: 5 female and 5 male mice per dose, with body weights between 20 and 26 gm, served as test animals. The animals had access to food and drinking water ad libitum.
# Compounds D, E, I and J were dissolved in distilled water, compounds A, B and C in 0.2% tartaric acid, and compound G in 15% propylene glycol.
# The injected volume at the dosage level of 50 mgm/kg i.v. amounted to 0.1 ml/10 gm of animal. When the dosage was increased or diminished by 10 mgm/kg i.v., the volume was increased or diminished by […], respectively. Control groups of 10 animals each were only treated with the solvent.
# The LD50 -values were determined according to the graphic-statistical method of Litchfield and Wilcoxon [(J. Pharmacol. exp. Therap. 96, 99, (1949)].
# [4] = 0.5 h, 30 min. after administration
# [5] = 2.5 h, 150 min. after administration
# [6] = 5 h, 300 min. after administration
SMILES,"Shocks/animal, Treated animals [1] [Shocks/animal]","Shocks/animal, Difference (treated animals vs controls) [1] [Shocks/animal]","ED50 [2, 4] [mg/kg]","ED50 [2, 5] [mg/kg]","ED50 [2, 6] [mg/kg]",LD50 at 336 h [3] [mg/kg]
"CCN1CCCC1CNC(=O)c1cc(Br)cc(Cl)c1N (stereo not drawn) [E, N-[1-ethyl-pyrrolidyl-(2)-methyl]-2-amino-5-bromo-3-chloro-benzoic acid amide hydrochloride]",7.5,4.5,44,68,109,25
"CCN1CCCC1CNC(=O)c1cc(F)c(N)c(Cl)c1 (stereo not drawn) [Compound C, N-[1-ethyl-pyrrolidyl-(2)-methyl]-4-amino-3-chloro-5-fluoro-benzoic acid amide]",6.7,3.9,37,50,128,28.5
"CCN1CCCC1CNC(=O)c1cc(Cl)c(N)c(C(F)(F)F)c1 (stereo not drawn) [J, N-[1-ethyl-pyrrolidyl-(2)-methyl]-4-amino-3-chloro-5-trifluoromethyl-benzoic acid amide hydrochloride]",7.2,3.6,62,64,82,33.5
"CCN1CCCC1CNC(=O)c1cc(C)cc(Cl)c1N (stereo not drawn) [A, N-[1-ethyl-pyrrolidyl-(2)-methyl]-2-amino-3-chloro-5-methyl-benzoic acid amide]",7.1,3.6,28,60,102,28.6
"CCN1CCCC1CNC(=O)c1cc([N+](=O)[O-])cc(Cl)c1N (stereo not drawn) [B, N-[1-ethyl-pyrrolidyl-(2)-methyl]-2-amino-3-chloro-5-nitro-benzoic acid amide]",4.9,1.2,78,130,178,39
"Nc1c(C(=O)NCc2cccnc2)cc(Cl)cc1C(F)(F)F [K, 2-amino-5-chloro-N-[pyridyl-(3)-methyl]-3-trifluoromethyl-benzoic acid amide]",9.6,6.1,> 200,70,73,–
"Cl.Nc1ccc(C(=O)NC2CCCCC2)c(Cl)c1 [F, 4-amino-2-chloro-N-cyclohexyl-benzoic acid amide hydrochloride]",5.3,2.0,38,50,116,–
"Cl.Nc1ccc(C(=O)NCc2ccccc2)c(Cl)c1 [G, 4-amino-N-benzyl-2-chloro-benzoic acid amide hydrochloride]",7.1,3.8,68,133,200,48
"CN(C(=O)c1ccc(N)cc1Cl)C1CCCCC1 [H, 4-amino-2-chloro-N-cyclohexyl-N-methyl-benzoic acid amide]",7.8,4.6,200,155,200,–
"CCN1CCCC1CNC(=O)c1cc(Cl)cc(Cl)c1N (stereo not drawn) [D, N-[1-ethyl-pyrrolidyl-(2)-methyl]-2-amino-3,5-dichloro-benzoic acid amide hydrochloride]",6.8,3.1,35,54,109,31.5
"CCN1CCCC1CNC(=O)c1cc(Cl)cc(C(F)(F)F)c1N (stereo not drawn) [I, N-[1-Ethyl-pyrrolidyl-(2)-methyl]-2-amino-5-chloro-3-trifluoromethyl-benzoic acid amide hydrochloride]",7.5,4.6,72,100,124,52.5

# Source: patent publication US4093734A, “Amino-benzoic acid amides” (Boehringer Ingelheim GmbH, priority 1975, dated 1978)
